In PubChem BioAssay AID256 (DTP/NCI, 2004) one finds T/C data, which are given here for 20 compounds.

Toxic doses and inconclusive results are not listed.

The test system of the assay is CD2F1 mice, L1210 leukemia ip, survival T/C. Description: NCI In Vivo Anticancer Drug Screen. Data for tumor model L1210 Leukemia (intraperitoneal) in CD2F1 (CDF1) mice. As to conditions: higher = longer survival. The method in brief: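 Vehicle-treated tumor-bearing mice served as controls (C) for compound-treated mice (T). Reported figure is T divided by C.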
Where [1] appears, read: endpoint: mean survival time, dose: 100.0 mg/kg/injection, schedule: Q01DX009 (ip), vehicle: saline with Tween-80.
[2] abbreviates: endpoint: mean survival time, dose: 200.0 mg/kg/injection, schedule: Q01DX009 (ip), vehicle: saline with Tween-80.
Setting [3] is: endpoint: mean survival time, dose: 400.0 mg/kg/injection, schedule: Q01DX009 (ip), vehicle: saline with Tween-80.
The mark [4] stands for this setting: endpoint: mean survival time, dose: 100.0 mg/kg/injection, schedule: Q04DX003 (ip), vehicle: saline.
Setting [5] is: endpoint: mean survival time, dose: 200.0 mg/kg/injection, schedule: Q04DX003 (ip), vehicle: saline.
Setting [6] is: endpoint: mean survival time, dose: 100.0 mg/kg/injection, schedule: Q04DX003 (ip), vehicle: saline with Tween-80.
[7] abbreviates: endpoint: mean survival time, dose: 200.0 mg/kg/injection, schedule: Q04DX003 (ip), vehicle: saline with Tween-80.
Setting [8] is: endpoint: mean survival time, dose: 400.0 mg/kg/injection, schedule: Q04DX003 (ip), vehicle: saline with Tween-80.

On to `CN(C)c1ccc(/C=N/NC(=O)CC2CCCCC2)cc1`, for which the T/C reads like this: under setting [1], 90 % of control; under setting [2], 93 % of control; under setting [3], 93 % of control.

Turning to `CCCCCCCCOC(=O)c1cc([N+](=O)[O-])c(Sc2ncnc3nc[nH]c23)c([N+](=O)[O-])c1`, the T/C is, setting by setting: (endpoint: mean survival time, dose: 11.0 mg/kg/injection, schedule: Q01DX005 (ip), vehicle: other) 112 % of control; (endpoint: mean survival time, dose: 12.5 mg/kg/injection, schedule: Q01DX005 (ip), vehicle: other) 115 % of control; (endpoint: mean survival time, dose: 25.0 mg/kg/injection, schedule: Q01DX005 (ip), vehicle: other) 172 % of control; (endpoint: mean survival time, dose: 50.0 mg/kg/injection, schedule: Q01DX005 (ip), vehicle: other) 118 % of control; (endpoint: mean survival time, dose: 100.0 mg/kg/injection, schedule: Q01DX005 (ip), vehicle: other) 107 % of control.

For `ClCCCN1CCN(CCCCl)CC1`, the T/C (endpoint: mean survival time, dose: 6.25 mg/kg/injection, schedule: Q01DX009 (ip), vehicle: distilled water + alcohol) is 96 % of control; the T/C (endpoint: mean survival time, dose: 12.5 mg/kg/injection, schedule: Q01DX009 (ip), vehicle: distilled water + alcohol) was 95 % of control; the T/C (endpoint: mean survival time, dose: 25.0 mg/kg/injection, schedule: Q01DX009 (ip), vehicle: distilled water + alcohol) is 102 % of control; the T/C (endpoint: mean survival time, dose: 50.0 mg/kg/injection, schedule: Q01DX009 (ip), vehicle: distilled water + alcohol) is 103 % of control; the T/C (endpoint: mean survival time, dose: 100.0 mg/kg/injection, schedule: Q01DX009 (ip), vehicle: distilled water + alcohol) is 108 % of control.

As to `CN(N=C(C1CC1)C1CC1)c1ccccc1`, the T/C runs as follows: (endpoint: mean survival time, dose: 100.0 mg/kg/injection, schedule: Q01DX001 (ip), vehicle: saline with Tween-80) 100 % of control; (endpoint: mean survival time, dose: 200.0 mg/kg/injection, schedule: Q01DX001 (ip), vehicle: saline with Tween-80) 107 % of control; (endpoint: mean survival time, dose: 400.0 mg/kg/injection, schedule: Q01DX001 (ip), vehicle: saline with Tween-80) 105 % of control.

Regarding `CC(C)NC(=O)CCCCn1c(=O)c2ccccc2c(=O)n1C`, the T/C is, setting by setting: (endpoint: mean survival time, dose: 25.0 mg/kg/injection, schedule: Q04DX003 (ip), vehicle: saline) 96 % of control; (endpoint: mean survival time, dose: 50.0 mg/kg/injection, schedule: Q04DX003 (ip), vehicle: saline) 96 % of control; under setting [4], 98 % of control; under setting [5], 113 % of control; (endpoint: mean survival time, dose: 400.0 mg/kg/injection, schedule: Q04DX003 (ip), vehicle: saline) 104 % of control.

For `C[N+]1(CCO)C2CCC1CC(O)C2` (stereo not given), the T/C by setting is: (endpoint: mean survival time, dose: 100.0 mg/kg/injection, schedule: Q04DX002 (ip), vehicle: saline) 97 % of control; (endpoint: mean survival time, dose: 200.0 mg/kg/injection, schedule: Q04DX002 (ip), vehicle: saline) 102 % of control.

As for `CCOC(=O)C(C)C(=O)O` (stereo not given), the T/C was 97 % of control (endpoint: mean survival time, dose: 50.0 mg/kg/injection, schedule: Q01DX009 (ip), vehicle: saline); 98 % of control (endpoint: mean survival time, dose: 100.0 mg/kg/injection, schedule: Q01DX009 (ip), vehicle: saline); 98 % of control under setting [4]; 98 % of control (endpoint: mean survival time, dose: 200.0 mg/kg/injection, schedule: Q01DX009 (ip), vehicle: saline); 96 % of control under setting [5].

With `CCN(CC)C(=S)SC/C=C\CC(Cl)(Cl)Cl`, the T/C reads like this: (endpoint: mean survival time, dose: 75.0 mg/kg/injection, schedule: Q04DX003 (ip), vehicle: saline) 97 % of control; (endpoint: mean survival time, dose: 150.0 mg/kg/injection, schedule: Q04DX003 (ip), vehicle: saline) 101 % of control; (endpoint: mean survival time, dose: 300.0 mg/kg/injection, schedule: Q04DX003 (ip), vehicle: saline) 109 % of control.

Regarding `CCOc1cc(NCCCN)c2nc(OCc3ccccc3)ccc2c1`, the T/C (endpoint: mean survival time, dose: 75.0 mg/kg/injection, schedule: Q01DX001 (ip), vehicle: saline) is 96 % of control.

For the compound `CC(CC(=O)O)(C(=O)O)S(=O)O` (stereo not given), the T/C reads like this: (endpoint: mean survival time, dose: 100.0 mg/kg/injection, schedule: Q04DX002 (ip), vehicle: other) 97 % of control; (endpoint: mean survival time, dose: 200.0 mg/kg/injection, schedule: Q04DX002 (ip), vehicle: other) 100 % of control; (endpoint: mean survival time, dose: 400.0 mg/kg/injection, schedule: Q04DX002 (ip), vehicle: other) 100 % of control.

`CC(CC(=O)Nc1ccccc1)C(=O)O` (stereo not given): the T/C runs as follows: under setting [6], 103 % of control; under setting [7], 101 % of control; under setting [8], 106 % of control.

Take `CC(C)C1CC2CCC3C(C)(C(=O)O)CCCC3(C)C2CC1CO` (stereo not given): the T/C is 87 % of control under setting [1], 91 % of control under setting [2] and 86 % of control under setting [3].

For the compound `CC(=O)N/N=C/C(C)(C)C(C)(C)/C=N/NC(C)=O`, the T/C by setting is: (endpoint: mean survival time, dose: 100.0 mg/kg/injection, schedule: Q04DX002 (ip), vehicle: saline with Tween-80) 103 % of control; (endpoint: mean survival time, dose: 200.0 mg/kg/injection, schedule: Q04DX002 (ip), vehicle: saline with Tween-80) 122 % of control.

For the compound `COc1ccc(CNCCO)cc1`, the T/C was 96 % of control (endpoint: mean survival time, dose: 50.0 mg/kg/injection, schedule: Q01DX009 (ip), vehicle: saline with Tween-80); 102 % of control under setting [1]; 98 % of control under setting [2].

Regarding `Cn1c(=O)c2c(ncn2CCNCC(O)c2ccc(O)c(O)c2)n(C)c1=O` (stereo not given), the T/C was 100 % of control (endpoint: mean survival time, dose: 12.5 mg/kg/injection, schedule: Q01DX005 (ip), vehicle: water); 106 % of control (endpoint: mean survival time, dose: 25.0 mg/kg/injection, schedule: Q01DX005 (ip), vehicle: water); 97 % of control (endpoint: mean survival time, dose: 50.0 mg/kg/injection, schedule: Q01DX005 (ip), vehicle: water); 101 % of control (endpoint: mean survival time, dose: 100.0 mg/kg/injection, schedule: Q01DX005 (ip), vehicle: water); 106 % of control (endpoint: mean survival time, dose: 200.0 mg/kg/injection, schedule: Q01DX005 (ip), vehicle: water).

For `Cn1c(N)c(C2OC(=O)c3ccccc32)c(=O)n(C)c1=O` (stereo not given), the T/C was 98 % of control (endpoint: mean survival time, dose: 100.0 mg/kg/injection, schedule: Q04DX002 (ip), vehicle: Klucel (hydroxypropylcellulose) (HPC)) and 98 % of control (endpoint: mean survival time, dose: 200.0 mg/kg/injection, schedule: Q04DX002 (ip), vehicle: Klucel (hydroxypropylcellulose) (HPC)).

For the compound `COc1cc(/C=C/C(C)=N/Nc2ccc([N+](=O)[O-])cc2[N+](=O)[O-])ccc1O`, the T/C under setting [6] was 95 % of control, the T/C under setting [7] was 94 % of control and the T/C under setting [8] was 95 % of control.

Consider `CCOC(=O)C1CC=CCC1C(=O)OCC` (stereo not given), for which the T/C runs as follows: (endpoint: mean survival time, dose: 35.0 mg/kg/injection, schedule: Q04DX003 (ip), vehicle: other) 111 % of control; (endpoint: mean survival time, dose: 65.0 mg/kg/injection, schedule: Q04DX003 (ip), vehicle: other) 94 % of control; (endpoint: mean survival time, dose: 100.0 mg/kg/injection, schedule: Q04DX003 (ip), vehicle: other) 103 % of control; (endpoint: mean survival time, dose: 150.0 mg/kg/injection, schedule: Q04DX003 (ip), vehicle: other) 100 % of control.

Consider `OCC1OC(n2cnc3c(Cl)nccc32)C(O)C1O` (stereo not given), for which the T/C was 100 % of control (endpoint: median survival time, dose: 9.63 mg/kg/injection, schedule: Q01DX005 (ip), vehicle: saline); 104 % of control (endpoint: median survival time, dose: 19.25 mg/kg/injection, schedule: Q01DX005 (ip), vehicle: saline); 94 % of control (endpoint: median survival time, dose: 38.5 mg/kg/injection, schedule: Q01DX005 (ip), vehicle: saline); 108 % of control (endpoint: median survival time, dose: 77.0 mg/kg/injection, schedule: Q01DX005 (ip), vehicle: saline); 101 % of control (endpoint: median survival time, dose: 154.0 mg/kg/injection, schedule: Q01DX005 (ip), vehicle: saline).

Take `CCCCCCCC(=O)O[C@H]1[C@H]2[C@@H](CC1(C)C)C(=O)[C@]13O[C@H]1C(=O)[C@]1(CO1)[C@]23C`: the T/C reads like this: (endpoint: median survival time, dose: 1.25 mg/kg/injection, schedule: Q01DX009 (ip), vehicle: saline with Tween-80) 101 % of control; (endpoint: median survival time, dose: 2.5 mg/kg/injection, schedule: Q01DX009 (ip), vehicle: saline with Tween-80) 104 % of control; (endpoint: median survival time, dose: 5.0 mg/kg/injection, schedule: Q01DX009 (ip), vehicle: saline with Tween-80) 104 % of control; (endpoint: median survival time, dose: 10.0 mg/kg/injection, schedule: Q01DX009 (ip), vehicle: saline with Tween-80) 107 % of control; (endpoint: median survival time, dose: 20.0 mg/kg/injection, schedule: Q01DX009 (ip), vehicle: saline with Tween-80) 107 % of control.
